One may read the inhibition as the drop in the measured response relative to a control, in per cent. In general, IC50 refers to the midpoint of a concentration-inhibition curve. A low value points to greater potency.

For one test, the target named is T1, histamine H4 receptor (Homo sapiens, UniProt Q9H3N8).
T1 construct: expressed in transfected cells; host or cells: HEK293SFM cells (membrane preparation)
T1 sequence (Q9H3N8 whole entry): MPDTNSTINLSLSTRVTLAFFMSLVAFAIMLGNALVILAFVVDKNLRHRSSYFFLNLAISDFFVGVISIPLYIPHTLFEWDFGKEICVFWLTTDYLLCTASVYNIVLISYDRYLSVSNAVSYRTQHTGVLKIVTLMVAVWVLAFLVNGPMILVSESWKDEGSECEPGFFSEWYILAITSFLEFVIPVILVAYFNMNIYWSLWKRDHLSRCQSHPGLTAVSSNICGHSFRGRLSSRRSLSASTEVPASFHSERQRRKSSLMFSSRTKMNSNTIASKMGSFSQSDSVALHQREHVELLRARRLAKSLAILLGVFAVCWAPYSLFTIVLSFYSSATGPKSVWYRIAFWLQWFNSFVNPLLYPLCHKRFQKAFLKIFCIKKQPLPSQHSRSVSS
In words: Inhibition of histamine H4 receptor (Table A1; H4 membrane binding assay).
Conditions: not given
The method in brief: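 Radioligand binding was measured by filtration through PEI-treated GF/B filters with scintillation counting, using 1000× unlabeled ligand to define nonspecific binding. Membranes were prepared from HEK293SFM cells recombinantly expressing human H4 in ice-cold 50 mM Tris-HCl, pH 7.5, plus protease inhibitors.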
As for `CC1Cc2ccc(-c3cnn(C4CCOCC4)c3)cc2CN1c1cc(N2CCN(C)CC2)nc(N)n1` (stereo not shown) [Example 95B, 4-(4-Methylpiperazin-1-yl)-6-[3-methyl-7-[1-(tetrahydro-2H-pyran-4-yl)-1H-pyrazol-4-yl]-3,4-dihydroisoquinolin-2(1H)-yl]pyrimidin-2-amine], at 1 µM the inhibition was 79%. Compound `CC1Cc2ccc(-c3cnn(C4CCS(=O)(=O)C4)c3)cc2CN1c1cc(N2CCN(C)CC2)nc(N)n1` (stereo not shown) [Example 98B, 4-[7-[1-(1,1-dioxidotetrahydro-3-thienyl)-1H-pyrazol-4-yl]-3-methyl-3,4-dihydroisoquinolin-2(1H)-yl]-6-(4-methylpiperazin-1-yl)pyrimidin-2-amine] came in with an inhibition at 1 µM of 56%.

The same test, now with this note: histamine H4 receptor; "> a" = exceeds experiment limit.
`CNC(=O)c1ccc(N2CCN(c3ccc4c(c3)CN(c3cc(N5CCN(C)CC5)nc(N)n3)CC4)C(=O)C2)nc1` [Example 44, 6-(4-{2-[2-Amino-6-(4-methylpiperazin-1-yl)pyrimidin-4-yl]-1,2,3,4-tetrahydroisoquinolin-7-yl}-3-oxopiperazin-1-yl)-N-methylnicotinamide] gave an IC50 of 93 nM. Same read-out and setting: with `CNC(=O)c1ncc(-c2ccc3c(c2)CN(c2cc(N4CCN(C)CC4)nc(N)n2)CC3)cc1C` [Example 45, 5-{2-[2-Amino-6-(4-methylpiperazin-1-yl)pyrimidin-4-yl]-1,2,3,4-tetrahydroisoquinolin-7-yl}-N,3-dimethylpyridine-2-carboxamide] the figure was 106 nM; with `Cc1cc(-c2ccc3c(c2)CN(c2cc(N4CCN(C)CC4)nc(N)n2)CC3)cnc1C(=O)N(C)C` [Example 46, 5-{2-[2-Amino-6-(4-methylpiperazin-1-yl)pyrimidin-4-yl]-1,2,3,4-tetrahydroisoquinolin-7-yl}-N,N,3-trimethylpyridine-2-carboxamide], 173 nM.

`CNC(=O)c1csc(-c2ccc3c(c2)CN(c2cc(N4CCN(C)CC4)nc(N)n2)CC3)n1` [Example 47, 2-{2-[2-Amino-6-(4-methylpiperazin-1-yl)pyrimidin-4-yl]-1,2,3,4-tetrahydroisoquinolin-7-yl}-N-methyl-1,3-thiazole-4-carboxamide]: the IC50 is 127 nM. The same measure, in the same setting: then `CN1CCN(c2cc(N3CCc4ccc(-c5nc(C(=O)N6CCCC6)cs5)cc4C3)nc(N)n2)CC1` [Example 48, 4-(4-Methylpiperazin-1-yl)-6-[7-[4-(pyrrolidin-1-ylcarbonyl)-1,3-thiazol-2-yl]-3,4-dihydroisoquinolin-2(1H)-yl]pyrimidin-2-amine], with 200 nM; and `CNC(=O)c1ccc(-c2ccc3c(c2)CN(c2cc(N4CCN(C)CC4)nc(N)n2)C(C)C3)cn1` (stereo not shown) [Example 49, 5-{2-[2-Amino-6-(4-methylpiperazin-1-yl)pyrimidin-4-yl]-3-methyl-1,2,3,4-tetrahydroisoquinolin-7-yl}-N-methylpyridine-2-carboxamide], with 42 nM; and `CC1Cc2ccc(-c3ccc(C(=O)N4CCC(N(C)C)C4)nc3)cc2CN1c1cc(N2CCN(C)CC2)nc(N)n1` (stereo not shown) [Example 57, 4-[7-(6-{[3-(Dimethylamino)pyrrolidin-1-yl]carbonyl}pyridin-3-yl)-3-methyl-3,4-dihydroisoquinolin-2(1H)-yl]-6-(4-methylpiperazin-1-yl)pyrimidin-2-amine], with 119 nM. For `CC1Cc2ccc(-c3ccc(C(=O)N4CCN(C)CC4)nc3)cc2CN1c1cc(N2CCN(C)CC2)nc(N)n1` (stereo not shown) [Example 58, 4-[3-Methyl-7-{6-[(4-methylpiperazin-1-yl)carbonyl]pyridin-3-yl}-3,4-dihydroisoquinolin-2 (1H)-yl]-6-(4-methylpiperazin-1-yl)pyrimidin-2-amine], the IC50 was found to be 144 nM. The same measure, in the same setting: with `CC1Cc2ccc(-c3ccc(C(=O)NCCO)nc3)cc2CN1c1cc(N2CCN(C)CC2)nc(N)n1` (stereo not shown) [Example 59, 5-{2-[2-Amino-6-(4-methylpiperazin-1-yl)pyrimidin-4-yl]-3-methyl-1,2,3,4-tetrahydroisoquinolin-7-yl}-N-(2-hydroxyethyl)pyridine-2-carboxamide] the figure was 54 nM.

`CNC(=O)Cn1cc(-c2ccc3c(c2)CN(c2cc(N4CCN(C)CC4)nc(N)n2)C(C)C3)cn1` (stereo not shown) [Example 79, 2-(4-{2-[2-Amino-6-(4-methylpiperazin-1-yl)pyrimidin-4-yl]-3-methyl-1,2,3,4-tetrahydroisoquinolin-7-yl}-1H-pyrazol-1-yl)-N-methylacetamide] yielded a half-inhibitory concentration (IC50) of 108 nM. Same read-out and setting: with `CC1Cc2ccc(-c3cnn(CC(=O)N(C)C)c3)cc2CN1c1cc(N2CCN(C)CC2)nc(N)n1` (stereo not shown) [Example 80, 2-(4-{2-[2-Amino-6-(4-methylpiperazin-1-yl)pyrimidin-4-yl]-3-methyl-1,2,3,4-tetrahydroisoquinolin-7-yl}-1H-pyrazol-1-yl)-N,N-dimethylacetamide] the figure was 106 nM; with `Cc1nc(-c2ccc3c(c2)CN(c2cc(N4CCN(C)CC4)nc(N)n2)C(C)C3)cs1` (stereo not shown) [Example 116, 4-[3-Methyl-7-(2-methyl-1,3-thiazol-4-yl)-3,4-dihydroisoquinolin-2(1H)-yl]-6-(4-methylpiperazin-1-yl)pyrimidin-2-amine], 20 nM. Still for that read-out and setting: then `CCOc1nc(-c2ccc3c(c2)CN(c2cc(N4CCN(C)CC4)nc(N)n2)C(C)C3)cs1` (stereo not shown) [Example 117, 4-[7-(2-Ethoxy-1,3-thiazol-4-yl)-3-methyl-3,4-dihydroisoquinolin-2(1H)-yl]-6-(4-methylpiperazin-1-yl)pyrimidin-2-amine], with 43 nM; and `CC1Cc2ccc(-c3cnn(C)c3)cc2CN1c1cc(N2CC[C@@H](N)C2)nc(N)n1` (stereo partly drawn) [Example 118, 4-[(3R)-3-Aminopyrrolidin-1-yl]-6-[3-methyl-7-(1-methyl-1H-pyrazol-4-yl)-3,4-dihydroisoquinolin-2(1H)-yl]pyrimidin-2-amine], with 255 nM; and `CC1Cc2ccc(-c3cnn(C)c3)cc2CN1c1cc(N2CCC(N)CC2)nc(N)n1` (stereo not shown) [Example 120, 4-(4-Aminopiperidin-1-yl)-6-[3-methyl-7-(1-methyl-1H-pyrazol-4-yl)-3,4-dihydroisoquinolin-2 (1H)-yl]pyrimidin-2-amine], with 40 nM.

`CC1Cc2ccc(-c3cnn(C)c3)cc2CN1c1cc(N2CCNCC2)nc(N)n1` (stereo not shown) [Example 121, 4-[3-Methyl-7-(1-methyl-1H-pyrazol-4-yl)-3,4-dihydroisoquinolin-2 (1H)-yl]-6-piperazin-1-ylpyrimidin-2-amine] had an IC50 of 24 nM. Against the preceding compound, the IC50 is about 1.7-fold lower. On to `CC1Cc2ccc(-c3cnn(C)c3)cc2CN1c1cc(N2CCCNCC2)nc(N)n1` (stereo not shown) [Example 122, 4-(1,4-Diazepan-1-yl)-6-[3-methyl-7-(1-methyl-1H-pyrazol-4-yl)-3,4-dihydroisoquinolin-2(1H)-yl]pyrimidin-2-amine], for which the IC50 came to 51 nM.

`CC1Cc2ccc(-c3cnn(C)c3)cc2CN1c1cc(N2CC3CC2CN3)nc(N)n1` (stereo not shown) [Example 123, 4-(2,5-Diazabicyclo[2.1.1]hept-2-yl)-6-[3-methyl-7-(1-methyl-1H-pyrazol-4-yl)-3,4-dihydroisoquinolin-2(1H)-yl]pyrimidin-2-amine] yielded an IC50 of 124 nM. Take `CN[C@@H]1CCN(c2cc(N3Cc4cc(-c5cnn(C)c5)ccc4CC3C)nc(N)n2)C1` (stereo partly drawn) [Example 124, 4-[(3R)-3-(Methylamino)pyrrolidin-1-yl]-6-[3-methyl-7-(1-methyl-1H-pyrazol-4-yl)-3,4-dihydroisoquinolin-2(1H)-yl]pyrimidin-2-amine]: the IC50 amounted to 121 nM. The IC50 values of the last two compounds are within 1.5-fold of each other.

Regarding `CC1Cc2ccc(-c3cnn(C)c3)cc2CN1c1cc(N2CCCN(C)CC2)nc(N)n1` (stereo not shown) [Example 125, 4-(4-Methyl-1,4-diazepan-1-yl)-6-[3-methyl-7-(1-methyl-1H-pyrazol-4-yl)-3,4-dihydroisoquinolin-2(1H)-yl]pyrimidin-2-amine], the IC50 was determined as 56 nM. Same read-out and setting: then `CC1Cc2ccc(-c3cnn(C)c3)cc2CN1c1cc(N2CCN3CCCC3C2)nc(N)n1` (stereo not shown) [Example 126, 4-(Hexahydropyrrolo[1,2-a]pyrazin-2(1H)-yl)-6-[3-methyl-7-(1-methyl-1H-pyrazol-4-yl)-3,4-dihydroisoquinolin-2(1H)-yl]pyrimidin-2-amine], with 66 nM; and `CNC(=O)c1ccc(-c2cc3c(cc2F)CCN(c2cc(N4CCN(C)CC4)nc(N)n2)C3)cn1` [Example 127, 5-{2-[2-Amino-6-(4-methylpiperazin-1-yl)pyrimidin-4-yl]-6-fluoro-1,2,3,4-tetrahydroisoquinolin-7-yl}-N-methylpyridine-2-carboxamide], with 104 nM; and `CN1CCN(c2cc(N3CCc4cc(F)c(-c5cccc(C(=O)N(C)C)c5)cc4C3)nc(N)n2)CC1` [Example 128, 3-{2-[2-Amino-6-(4-methylpiperazin-1-yl)pyrimidin-4-yl]-6-fluoro-1,2,3,4-tetrahydroisoquinolin-7-yl}-N,N-dimethylbenzamide], with 148 nM. Take `CC1Cc2ccc(-c3ccc4c(c3)CN(C3CC3)C4=O)cc2CN1c1cc(N2CCN(C)CC2)nc(N)n1` (stereo not shown) [Example 129, 5-{2-[2-Amino-6-(4-methylpiperazin-1-yl)pyrimidin-4-yl]-3-methyl-1,2,3,4-tetrahydroisoquinolin-7-yl}-2-cyclopropylisoindolin-1-one]: the IC50 came out at 112 nM. The IC50 values of the last two compounds are within 1.5-fold of each other.

`CNC(=O)c1ccc(-c2ccc3c(c2)CN(c2cc(N4CCN(C)CC4)nc(N)n2)C(C)C3)cc1C` (stereo not shown) [Example 130, 4-{2-[2-Amino-6-(4-methylpiperazin-1-yl)pyrimidin-4-yl]-3-methyl-1,2,3,4-tetrahydroisoquinolin-7-yl}-N,2-dimethylbenzamide] came in with an IC50 of 69 nM. In turn, `CC1Cc2ccc(-c3ccc4c(c3)NC(=O)CO4)cc2CN1c1cc(N2CCN(C)CC2)nc(N)n1` (stereo not shown) [Example 131, 6-{2-[2-amino-6-(4-methylpiperazin-1-yl)pyrimidin-4-yl]-3-methyl-1,2,3,4-tetrahydroisoquinolin-7-yl}-2H-1,4-benzoxazin-3(4H)-one] returned an IC50 of 30 nM.

Values taken from patent publication US20130244999A1, “Substituted Heterocyclic Compounds” (Incyte Corporation, priority 2008, published 2013).
